Molecules are shown by their SMILES.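 Where inhibition never reached the appropriate level, the endpoint shown equals the highest concentration tested. Otherwise, values were interpolated linearly from a five-concentration, 48-hour dose response in 96-well plates. Abbreviation: GI50, concentration required for 50% inhibition of growth.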 Activity calls are given as the source filed them. No stated cut-off is given here; in the data, active = GI50 up to about 1.1 µM and inactive = higher. Where only a bound is given, the exact number is not on record here.

The values that follow come from ChEMBL document CHEMBL1201862, “PubChem BioAssay data set” (2004).

Test systems include NCI-H460; CAKI-1; NCI-H226; IGROV-1; M19-MEL; A498; SF-295; NCI-H522; KM-20L2; ACHN; M14; SR; DU-145; NCI/ADR-RES; HCT-116; MCF7; HOP-62; MDA-N; BT-549; DLD-1.
Holding throughout (test): NCI-60 cell line screen, 48 h

For `COc1ccc(/C(Cl)=C(\CN(C)C)c2ccc(OC)c(OC)c2)cc1OC`, the GI50 in the assay with NCI-H460, with CAKI-1, with NCI-H226, in the assay with IGROV-1, in the assay with M19-MEL and with A498 was > 100 µM (inactive) throughout. Moreover, the GI50 in the assay on SF-295, with NCI-H522, with KM-20L2 and in the assay on ACHN was > 100 µM (inactive) each time.

For `CCOC(=O)C(O)(NC(=O)c1ccccc1F)C(F)(F)F` (stereo not drawn), the GI50 in the assay on M14, with SR, with DU-145, in the assay with CAKI-1, in the assay with NCI/ADR-RES and in the assay with NCI-H226 was > 100 µM (inactive) each time. The GI50 in the assay on HCT-116 is > 100 µM (inactive); in the assay with IGROV-1 it was 84.5 µM (inactive); in the assay with SF-295, > 100 µM (inactive); with MCF7, > 100 µM (inactive); in the assay with NCI-H522, > 100 µM (inactive); with HOP-62 it was > 100 µM (inactive). In addition, the GI50 in the assay on ACHN, with MDA-N and in the assay on BT-549 was > 100 µM (inactive) each time.

As to `COc1cc([N+](=O)[O-])ccc1N1C(=O)C2c3[nH]c4ccccc4c3C3CCC(C(C)(C)C)CC3C2C1=O` (stereo not drawn), the GI50 was 13.6 µM (inactive) in the assay on M14; 18.9 µM (inactive) in the assay on NCI-H460; > 100 µM (inactive) in the assay with SR; > 100 µM (inactive) in the assay on DU-145; 2.04 µM (inactive) in the assay with CAKI-1; 22.3 µM (inactive) in the assay on NCI/ADR-RES. For the same compound, the GI50 in the assay with NCI-H226 was > 100 µM (inactive); in the assay on HCT-116, 44.5 µM (inactive); with IGROV-1, > 100 µM (inactive); in the assay with A498, > 100 µM (inactive); in the assay on MCF7, > 100 µM (inactive); in the assay on NCI-H522, 42.4 µM (inactive). Also, the GI50 with HOP-62 is 7.43 µM (inactive); in the assay on ACHN it was > 100 µM (inactive); in the assay on MDA-N it was 40.6 µM (inactive); in the assay on BT-549 it was 32 µM (inactive).

Regarding `CNC(=O)OCC1=C(COC(=O)NC)CN(c2ccc(OC)cc2)C1`, the GI50 in the assay on M14 was > 100 µM (inactive); with NCI-H460, > 100 µM (inactive); with SR, > 100 µM (inactive); in the assay with DU-145, > 100 µM (inactive); with NCI/ADR-RES, > 100 µM (inactive); in the assay with NCI-H226, 4.2 µM (inactive). Moreover, the GI50 is > 100 µM (inactive) with HCT-116; > 100 µM (inactive) in the assay on IGROV-1; 1.9 µM (inactive) with A498; > 100 µM (inactive) in the assay on SF-295; > 100 µM (inactive) with MCF7; > 100 µM (inactive) with HOP-62. In addition, the GI50 in the assay on ACHN, in the assay with MDA-N and with BT-549 was > 100 µM (inactive) throughout.

`CSc1nc(NC2OCC(OC(C)=O)C(OC(C)=O)C2OC(C)=O)c(/N=C(\C)C(C)=O)c(=O)[nH]1` (stereo not drawn): the GI50 with M14 was > 100 µM (inactive); in the assay on NCI-H460 it was > 100 µM (inactive); in the assay with SR, > 100 µM (inactive); with CAKI-1, > 100 µM (inactive); in the assay on NCI-H226, 0.164 µM (active); in the assay with HCT-116, > 100 µM (inactive). In addition, the GI50 with IGROV-1, in the assay with A498, in the assay on SF-295, in the assay with ACHN and in the assay on DLD-1 was > 100 µM (inactive) each time.

Consider `COS(=O)c1cc(Cl)cc(Cl)c1O` (stereo not drawn), for which the GI50 in the assay on M14, in the assay on NCI-H460, in the assay with SR, in the assay on HCT-116, with M19-MEL and in the assay with A498 was > 100 µM (inactive) in each case. Besides, the GI50 is 18 µM (inactive) with NCI-H522, > 100 µM (inactive) in the assay with HOP-62, > 100 µM (inactive) in the assay with ACHN and > 100 µM (inactive) in the assay on DLD-1.

On to `COc1ccc2c(C)cc(N/N=C(\C)C=O)nc2c1`, for which the GI50 in the assay with M14 is 13.6 µM (inactive); in the assay with NCI-H460, 8.99 µM (inactive); in the assay with SR, 1.64 µM (inactive); with DU-145, 11.7 µM (inactive); in the assay with CAKI-1, 14.4 µM (inactive); in the assay with NCI/ADR-RES it was 11.7 µM (inactive). The GI50 in the assay with NCI-H226 was 10.5 µM (inactive); in the assay with HCT-116, 11 µM (inactive); in the assay with IGROV-1, 16.5 µM (inactive); with A498 it was 14.5 µM (inactive); in the assay with SF-295, 10 µM (inactive); in the assay on MCF7 it was 8.79 µM (inactive). Moreover, the GI50 is 12.6 µM (inactive) with NCI-H522; 8.79 µM (inactive) in the assay on HOP-62; 15.6 µM (inactive) in the assay with ACHN; 10.8 µM (inactive) with MDA-N; 15.1 µM (inactive) with BT-549.

Take `COC(=O)C(C)NP(=O)(N1CC1)N1CC1` (stereo not drawn): the GI50 was 83 µM (inactive) in the assay on M14; > 100 µM (inactive) in the assay on CAKI-1; > 100 µM (inactive) in the assay with IGROV-1; > 100 µM (inactive) in the assay with A498; 92.5 µM (inactive) in the assay with SF-295; > 100 µM (inactive) with NCI-H522. For the same compound, the GI50 in the assay on KM-20L2 was > 100 µM (inactive); with ACHN it was 27.9 µM (inactive); with DLD-1, > 100 µM (inactive).

`Cc1ccc(C)c(NC(=O)CCC(=O)CC(=O)C(C)(C)C)c1`: the GI50 in the assay with M14, in the assay with NCI-H460, with CAKI-1, with HCT-116, in the assay on IGROV-1 and with M19-MEL was > 100 µM (inactive) throughout. For the same compound, the GI50 in the assay on A498, with NCI-H522, in the assay with HOP-62, in the assay on KM-20L2, with ACHN and in the assay on DLD-1 was > 100 µM (inactive) each time.

`CC1(C)N=C(c2ccccc2)SC12S[C@@H]1CCCC[C@H]1S2`: the GI50 in the assay on M14, in the assay with NCI-H460, with DU-145, in the assay on CAKI-1, in the assay on NCI/ADR-RES and in the assay with NCI-H226 was > 100 µM (inactive) in each case. In addition, the GI50 was > 100 µM (inactive) in the assay with HCT-116; > 100 µM (inactive) in the assay on IGROV-1; 17.9 µM (inactive) in the assay on A498; > 100 µM (inactive) in the assay with SF-295; 64.4 µM (inactive) in the assay on MCF7; > 100 µM (inactive) in the assay with NCI-H522. For the same compound, the GI50 is > 100 µM (inactive) in the assay with HOP-62, > 100 µM (inactive) with ACHN, 20.7 µM (inactive) with MDA-N and > 100 µM (inactive) in the assay with BT-549.

For `O=S(=O)(C1=CC(S(=O)(=O)c2ccccc2)CN(Cc2ccccc2)C1c1cccc2ccccc12)c1ccccc1` (stereo not drawn), the GI50 was > 69 µM (inactive) in the assay on M14; > 69 µM (inactive) in the assay on NCI-H460; 20.7 µM (inactive) in the assay on CAKI-1; 14.6 µM (inactive) with NCI-H226; > 69 µM (inactive) with HCT-116; > 69 µM (inactive) with IGROV-1. In addition, the GI50 in the assay on M19-MEL, in the assay with A498, in the assay with SF-295, with NCI-H522, with HOP-62 and in the assay with KM-20L2 was > 69 µM (inactive) in each case. Moreover, the GI50 with ACHN and in the assay on DLD-1 was > 69 µM (inactive) in each case.

As for `O=C1Nc2ccccc2N/C1=C\C(=O)C(F)F`, the GI50 in the assay on M14, in the assay on NCI-H460, in the assay with SR, in the assay with DU-145, with CAKI-1 and in the assay with NCI/ADR-RES was > 100 µM (inactive) throughout. For the same compound, the GI50 in the assay on NCI-H226, with HCT-116, in the assay on IGROV-1, in the assay on A498, with SF-295 and in the assay on MCF7 was > 100 µM (inactive) in each case. For the same compound, the GI50 in the assay on NCI-H522, in the assay with HOP-62, in the assay on ACHN, in the assay on MDA-N and in the assay with BT-549 was > 100 µM (inactive) throughout.

For the compound `COc1ccc(C(=O)C2CC3(CCC2(O)c2ccc(OC)cc2)CC(=O)Nc2ccccc2C3=O)cc1` (stereo not drawn), the GI50 in the assay with M14 is > 100 µM (inactive); in the assay on NCI-H460, 6.75 µM (inactive); in the assay on SR it was > 100 µM (inactive); in the assay with DU-145, > 100 µM (inactive); in the assay on CAKI-1, > 100 µM (inactive); in the assay on NCI/ADR-RES, > 100 µM (inactive). The GI50 in the assay on NCI-H226 was > 100 µM (inactive); in the assay with HCT-116, 28.4 µM (inactive); in the assay with IGROV-1, > 100 µM (inactive); in the assay on A498 it was > 100 µM (inactive); in the assay with SF-295, > 100 µM (inactive); in the assay with MCF7, 3.03 µM (inactive). The GI50 in the assay on HOP-62, in the assay with MDA-N and in the assay on BT-549 was > 100 µM (inactive) in each case.

Turning to `Oc1nc2ccccc2c2oc3ccccc3c12`, the GI50 in the assay on M14, in the assay with NCI-H460, in the assay on SR, in the assay with DU-145, with CAKI-1 and with NCI/ADR-RES was > 100 µM (inactive) each time. Further, the GI50 in the assay on NCI-H226, in the assay with IGROV-1, in the assay on A498, with SF-295, in the assay on MCF7 and with NCI-H522 was > 100 µM (inactive) throughout. In addition, the GI50 was 88.9 µM (inactive) in the assay on HOP-62, > 100 µM (inactive) in the assay on ACHN, > 100 µM (inactive) with MDA-N and > 100 µM (inactive) with BT-549.
